Laboratory results published in patent US20260250290A1 (BRISTOL-MYERS SQUIBB COMPANY, priority 2023, published 2026).
Counter-ions that a name gives are not always drawn.

Target: T1, full length SGK1 (Homo sapiens, UniProt O00141)
T1 construct: 125 μM full length SGK1 (Life Technologies Part #PR7358A); purchased Life Technologies PR7358A
T1 sequence (O00141 1-431): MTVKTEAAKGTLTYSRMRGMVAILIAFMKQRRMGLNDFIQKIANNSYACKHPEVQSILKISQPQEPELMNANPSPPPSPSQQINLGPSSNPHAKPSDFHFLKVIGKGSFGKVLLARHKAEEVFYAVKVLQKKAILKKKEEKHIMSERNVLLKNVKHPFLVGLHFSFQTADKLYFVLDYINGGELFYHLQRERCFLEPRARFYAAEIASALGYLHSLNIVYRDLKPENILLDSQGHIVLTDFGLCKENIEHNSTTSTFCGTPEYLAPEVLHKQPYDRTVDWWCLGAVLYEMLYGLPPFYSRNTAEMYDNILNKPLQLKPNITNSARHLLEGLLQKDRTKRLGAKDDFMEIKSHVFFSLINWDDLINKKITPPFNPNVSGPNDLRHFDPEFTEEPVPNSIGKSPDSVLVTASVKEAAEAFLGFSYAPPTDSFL
Assay: SGK1 inhibition Assay A (Caliper LabChip electrophoretic separation of fluorescent peptide substrate and phosphorylated product)
Assay type: biochemical
Details: Assay A; 20 μM ATP, 40 min incubation; read-out: SGK1 IC50

| Structure (SMILES) | IC50 [µM] |
| --- | --- |
| CN(C)CCOc1cc(Cl)sc1C(=O)N[C@@H]1CCCN(c2cc(-c3ccc(-n4cnnn4)cc3)n3ncnc(N)c23)C1 [Example 187, (R)-N-(1-(7-(4-(1H-tetrazol-1-yl)phenyl)-4-aminopyrrolo[2,1-f][1,2,4]triazin-5-yl)piperidin-3-yl)-5-chloro-3-(2-(dimethylamino)ethoxy) thiophene-2-carboxamide, 2 TFA] | 0.006 |
| CN(C)CCOc1cc(Cl)sc1C(=O)N[C@@H]1CCCN(c2cc(-c3ccc(C(F)F)nc3)n3ncnc(N)c23)C1 [Example 189, (R)-N-(1-(4-amino-7-(6-(difluoromethyl)pyridin-3-yl)pyrrolo[2,1-f][1,2,4]triazin-5-yl)piperidin-3-yl)-5-chloro-3-(2-(dimethylamino)ethoxy) thiophene-2-carboxamide] | 0.002 |
| CNCCOc1cc(Cl)sc1C(=O)N[C@@H]1CCCN(c2cc(C3=CCN(C(C)=O)C3)n3ncnc(N)c23)C1 [Example 332D, (R)—N-(1-(7-(1-acetyl-2,5-dihydro-1H-pyrrol-3-yl)-4-aminopyrrolo[2,1-f][1,2,4]triazin-5-yl)piperidin-3-yl)-5-chloro-3-(2-(methylamino)ethoxy)thiophene-2-carboxamide] | 0.01 |
| CS(=O)(=O)c1ccc(-c2cc(N3CCC[C@@H](NC(=O)c4cnco4)C3)c3c(N)ncnn23)cc1 [Example 61, (R)-N-(1-(4-amino-7-(4-(methylsulfonyl)phenyl)pyrrolo[2,1-f][1,2,4]triazin-5-yl)piperidin-3-yl)oxazole-5-carboxamide] | 0.033 |
| CS(=O)(=O)N1CC=C(c2cc(N3CCC[C@@H](NC(=O)c4cccs4)C3)c3c(N)ncnn23)C1 [Example 135, (R)—N-(1-(4-amino-7-(1-(methylsulfonyl)-2,5-dihydro-1H-pyrrol-3-yl)pyrrolo[2,1-f][1,2,4]triazin-5-yl)piperidin-3-yl)thiophene-2-carboxamide, TFA] | 0.003 |

The remaining lines, values ahead:

| IC50 [µM] | Structure (SMILES) |
| --- | --- |
| 0.01 | CC(=O)N1CC=C(c2cc(N3CCC[C@@H](NC(=O)c4sc(Cl)cc4OC4CCNC(C)(C)C4)C3)c3c(N)ncnn23)C1 (mixture of isomers) [Example 627, N-((R)-1-(7-(1-acetyl-2,5-dihydro-1H-pyrrol-3-y1)-4-aminopyrrolo[2,1-f][1,2,4]triazin-5-yl)piperidin-3-y1)-5-chloro-3-((2,2-dimethylpiperidin-4-yl)oxy)thiophene-2-carboxamide] |
| 0.011 | CC(=O)N1CC=C(c2cc(N3CCCC(NC(=O)c4sc(Cl)cc4OC4CC5CC4CN5C(C)C)C3)c3c(N)ncnn23)C1 (single isomer, unassigned) [Example 610] |
| 0.041 | CN(C)CCOc1c(C(=O)N[C@@H]2CCCN(c3cc(-c4ccc(C#N)nc4)n4ncnc(N)c34)C2)[nH]c2ccccc12 [Example 367, (R)-N-(1-(4-amino-7-(6-cyanopyridin-3-yl)pyrrolo[2,1-f][1,2,4]triazin-5-yl)piperidin-3-yl)-3-(2-(dimethylamino)ethoxy)-1H-indole-2-carboxamide] |
| 0.366 | CC(=O)N1CC=C(c2cc(N3CCC[C@@H](NC(=O)c4nc(F)ccc4N4CCN(C)CC4)C3)c3c(N)ncnn23)C1 [Example 745, (R)-N-(1-(7-(1-acetyl-2,5-dihydro-1H-pyrrol-3-yl)-4-aminopyrrolo[2,1-f][1,2,4]triazin-5-yl)piperidin-3-yl)-6-fluoro-3-(4-methylpiperazin-1-yl)picolinamide] |
| 0.229 | CC(C)N1CCC(c2cc(C(F)F)sc2C(=O)N[C@@H]2CCCN(c3cc(-c4ccc(C#N)nc4)n4ncnc(N)c34)C2)C1 (stereo partly drawn) [Example 403, N-((R)-1-(4-amino-7-(6-cyanopyridin-3-yl)pyrrolo[2,1-f][1,2,4]triazin-5-yl)piperidin-3-yl)-5-(difluoromethyl)-3-(1-isopropylpyrrolidin-3-yl)thiophene-2-carboxamide] |
| 0.062 | CC(=O)N1CC=C(c2cc(N3CCC[C@@H](NC(=O)c4sc(C)nc4C)C3)c3c(N)ncnn23)C1 [Example 472, (R)-N-(1-(7-(1-acetyl-2,5-dihydro-1H-pyrrol-3-yl)-4-aminopyrrolo[2,1-f][1,2,4]triazin-5-yl)piperidin-3-yl)-2,4-dimethylthiazole-5-carboxamide] |
